# Measured values from patent US20100105770A1, “Therapeutic delivery of carbon monoxide” (priority 2006, published 2010).
# Legend:
# [1] = tested on: deoxymyoglobin (deoxy-Mb); assay: Release of CO from metal carbonyl complexes (myoglobin assay / CO electrode); format: physicochemical
# Description: The release of CO from metal carbonyl complexes was assessed spectrophotometrically by measuring the conversion of deoxymyoglobin (deoxy-Mb) to carbonmonoxymyoglobin (MbCO). MbCO has a distinctive absorption spectrum between 500 and 600 nm, and changes at 540 nm were used to quantify the amount of CO liberated. Myoglobin solutions were prepared freshly by dissolving a known concentration of the protein in phosphate buffer, which was also made up to a known concentration and pH. Sodium dithionite (0.1%) was added to convert myoglobin to deoxy-Mb prior to each reading. The CORM was dissolved in the solvent specified in the solubility column of the table of FIGS. 1a-1k, before addition to the myoglobin solution.
# The release of CO from metal carbonyl complexes was also detected using a prototype electrode purchased from World Precision Instrument (Stevenage, Herts, UK). The CO electrode is a membrane-covered amperometric sensor which has been designed on a basic operating principle similar to the nitric oxide (NO) sensor. In fact, the CO sensor can be connected to the ISO-NO Mark II meter for detection of the current signals providing that the poise potential is set to a different value (900 mV for CO as opposed to 860 mV for NO). In principle, CO diffuses through the gas permeable membrane and is then oxidized to CO2 on the working electrode. This oxidation will create a current whose magnitude can be related directly to the concentration of CO in solution. The CO sensor was used to generate standard curves and calculate the rates of CO release from a CORM compound at different pHs and temperatures. The electrode was immersed into the solutions at different pHs and equilibrated for 30 min prior to addition of the CORM compound. The experiments were maintained at the desired temperature using a Grant W6 thermostat (Cambridge). This method is described in the applicants' earlier publication WO 2005/114161.
# Slow release rates (half-life >200 minutes) are indicated for the comparative compounds, while rapid release rates (half-life <50 minutes) were found for compounds within the invention. […] Compounds having three carbonyl ligands released CO slowly, as did compounds in which a carbon or a nitrogen atom of the ligand bond to the manganese. Slow release is also found for the compound (CORM 325) having Mn—Mn bonding.
# Solubility information = format: physicochemical
# Source text: Uncharged complexes, such as CORM 378, can be made water soluble by the presence of suitable ligands.
# RAW264.7 macrophages = assay: Anti-inflammatory action in LPS-stimulated RAW264.7 macrophages (nitrite, Griess method); format: cell-based, mouse; conditions: 24 h, 10, 50 or 100 μM compound, LPS 1 μg/ml
# Description: (2) The anti-inflammatory action was measured in RAW264.7 macrophages incubated for 24 h with 10, 50 or 100 μM of each compound in the presence or absence of Lipopolysaccharide (LPS) (1 μg/ml). Nitrite was used as an indicator of inflammation. * indicates a reduction in inflammation detected at 100 μM; ** indicates a reduction in inflammation detected at 50 μM; *** indicates a reduction in inflammation detected at 10 μM; “None” indicates there was no effect of the compound on inflammation; N.P. indicates assay not performed.
# Murine RAW264.7 monocyte macrophages were purchased from the European Collection of Cell Cultures (Salisbury, Wiltshire, UK) and cultured in Dulbecco's modified Eagle's medium (DMEM) supplemented' with 10% fetal bovine serum, 2 mM L-glutamine, 100 units ml^−1 penicillin and 0.1 mg ml^−1 streptomycin. […] Macrophages were exposed for 24 hr to LPS (1 μg ml^−) in the presence or absence of CORMs (10, 50 and 100 μM) and nitrite levels and cytotoxicity were determined at the end of the incubation. Nitrite levels were determined using the Griess method as previously described (Foresti et al. J. Biol. Chem. 272, 18411-18417, (1997)). […] The Griess reagent was added to each well to begin the reaction, the plate was shaken for 10 min and the absorbance read at 550 nm on a Molecular Devices VERSAmax plate reader. […]
# isolated aortic rings = assay: Vasorelaxation of pre-contracted isolated rat aortic rings; set-up: species or system Sprague-Dawley rats; conditions: for Contraction of pre-contracted aortic rings after addition of compound: varying concentrations, FIG. 3(a), 3(b)
# Description: (3) The experiments using the isolated aortic rings were conducted to assess the extent of vasorelaxation. One hundred micromolar (100 μM) of each compound were added to a pre-contracted ring and vasorelaxation was assessed as a percentage of the initial contraction, which was expressed as good (+) or very good (++).
# Vasodilatation data for CORM 371 and CORM 376 was measured as described previously by the inventors in their earlier publication, WO 2004/045599. This is described in more detail below.
# The method for the preparation of isolated aortic rings has been previously described (Sammut et al Br J Pharmacol 125: 1437-1444, 1998; Motterlini et al Circ Res 90: E17-E24, 2002). The thoracic aorta was isolated from Sprague-Dawley rats (350-450 g) and flushed with cold Krebs-Henseleit buffer (4° C., pH 7.4) containing (in mM): 118 NaCl, 4.7 KCl, […], 1.2 MgSO4.7H2O, 22 NaHCO3, 11 Glucose, 0.03 K^+EDTA, 2.5 CaCl2 and supplemented with 10 μM indomethacin. Each aorta was trimmed of adventitial tissue and ring, sections (˜3 mm length) were produced from the mid aortic segment. The rings were then mounted between two stainless steel hooks in 9-mL organ baths containing Krebs-Henseleit buffer which was maintained at 37° C. and continuously gassed with 95% O2-5% CO2. One hook was attached to a Grass FT03 isometric force transducer whilst the other was anchored to a sledge for regulation of the resting tension of the aortic ring. The rings were initially equilibrated for 30 min under a resting tension of 2 g which was previously determined to be optimal. Continuous recording of tension was made on a Grass 7D polygraph (Grass Instruments, Quincy, Mass.) in combination with a Biopac MP100 system using AcqKnowledge™ software (Linton Instruments, Norfolk, UK). Before each protocol was carried out, rings were contracted with a standard dose of KCl (100 mM) in order to provide an internal reference and to control for variability in contractile responsiveness between tissues. The relaxation response to CORM-3 (25 μM) in the presence or absence of YC-1 (5 μM final concentration, 30 min pre-incubation) was assessed in aortic rings pre-contracted with phenylephrine (1 μmol/L).
compound,measurement,setting,value
"O=[C]=[Mn]([Br])(=[C]=O)(=[C]=O)(=[C]=O)=[C]=O [CORM 309, [MnBr(CO)5]]",CO release rate (in words),[1],much longer CO release times
"O=[C]=[Mn]([I])(=[C]=O)(=[C]=O)(=[C]=O)=[C]=O [CORM 310, [MnI(CO)5]]",CO release rate (in words),[1],much longer CO release times
"[C-]#[O+].[C-]#[O+].[C-]#[O+].[C-]#[O+].[C-]#[O+].[Cl][Mn] [CORM 318, [MnCl(CO)5]]",CO release rate (in words),[1],much longer CO release times
"[C-]#[O+].[C-]#[O+].[C-]#[O+].[C-]#[O+].[C-]#[O+].[C-]#[O+].[C-]#[O+].[C-]#[O+].c1ccc([PH]([Mn][Mn][PH](c2ccccc2)(c2ccccc2)c2ccccc2)(c2ccccc2)c2ccccc2)cc1 [CORM 325, [Mn(CO)4(PPh3)]2]",CO release rate (in words),[1],Slow release
"OCCN(CCO)C(=S)[S-].[C-]#[O+].[C-]#[O+].[C-]#[O+].[C-]#[O+].[Mn+] [CORM 378, Mn(CO)4(η^2-S2CN{CH2CH2OH}2)]",Solubility in water,Solubility information,water soluble
"C[N+](C)(C)C.O=C([O-])c1ccccc1.O=C([O-])c1ccccc1.O=C([O-])c1ccccc1.[C-]#[O+].[C-]#[O+].[C-]#[O+].[C-]#[O+].[C-]#[O+].[C-]#[O+].[Mn+].[Mn+] [CORM 379, [Me4N][Mn2(CO)6(benzoate)3]]",Anti-inflammatory action (nitrite as indicator of inflammation),RAW264.7 macrophages,did not do so
same,CO release rate (in words),[1],rapid CO release
"CC(=O)[S-].CC(=O)[S-].C[N+](C)(C)C.[C-]#[O+].[C-]#[O+].[C-]#[O+].[C-]#[O+].[Mn+] [CORM-371, [Me4N][Mn(CO)4(thioacetate)2]]",Vasodilator activity in the aortic rings model,isolated aortic rings,good vasodilators
same,Contraction of pre-contracted aortic rings after addition of compound,isolated aortic rings,concentration-dependent decrease in contraction
[K][(OC)3Mn(μ-OCOCH3)3Mn(CO)3] [CORM-376],Vasodilator activity in the aortic rings model,isolated aortic rings,good vasodilators
same,Dilatation in presence of glibenclimide (inhibition of ATP-dependent K+ channels),"isolated aortic rings; glibenclimide at two different concentrations, FIG. 3(c)",did not affect
same,Contraction of pre-contracted aortic rings after addition of compound,isolated aortic rings,concentration-dependent decrease in contraction
same,Vasorelaxation in presence of guanylate cyclase inhibitor ODQ,"isolated aortic rings; with ODQ, FIG. 3(c)",significantly prevented
[Me4N][Mn(CO)4(Malonate)] [CORM 350],Anti-inflammatory action (nitrite as indicator of inflammation),RAW264.7 macrophages,did not do so
same,CO release rate (in words),[1],rapid CO release
